pEC50, pKi: −log10 of the molar value.
Legend:
[1] = target: T1, isolated recombinant JAK1 kinase domain (Homo sapiens, UniProt P23458); test: JAK enzyme assay, JAK1 kinase domain (Caliper LabChip); assay type: biochemical; details: 1.5 nM JAK1, ATP 25 μM, Morrison tight binding model
T1 construct: isolated recombinant JAK1 and JAK2 kinase domain
Procedure, shortened: (§1)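 Recombinant kinase domains phosphorylated a 5-carboxyfluorescein-labelled JAK3-derived peptide for 30 min at 22 °C, and the reaction was stopped with EDTA (50 mM final). Product fraction was measured by Caliper LabChip mobility shift. Ki came from Morrison tight-binding fits corrected for ATP competition (Ki=Ki,app/(1+[ATP]/Km,app)).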

[2] = tested on: JAK1-dependent STAT6 phosphorylation downstream of IL-13 stimulation in BEAS-2B cells; test: JAK1 pathway assay in cell lines: IL-13 p-STAT6 BEAS-2B; assay type: cell-based; details: BEAS-2B human bronchial epithelial cells, 1 hr compound, IL-13 15 min, MSD readout
Procedure, shortened: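 BEAS-2B cells plated a day ahead in complete growth medium; compounds added 1 hr at 37 °C (0.2% DMSO final), then IL-13 at lot-specific EC90 for 15 min at 37 °C. Phospho-STAT6 in lysates measured by MSD; EC50 is 50% inhibition relative to DMSO control.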

[3] = target: T2, isolated recombinant JAK2 kinase domain (Homo sapiens, UniProt O60674); test: JAK enzyme assay, JAK2 kinase domain (Caliper LabChip); assay type: biochemical; details: 0.2 nM JAK2, ATP 25 μM, Morrison tight binding model
T2 construct: isolated recombinant JAK1 and JAK2 kinase domain
Procedure, shortened: as §1

T2 sequence (O60674 849-1124 limits assumed): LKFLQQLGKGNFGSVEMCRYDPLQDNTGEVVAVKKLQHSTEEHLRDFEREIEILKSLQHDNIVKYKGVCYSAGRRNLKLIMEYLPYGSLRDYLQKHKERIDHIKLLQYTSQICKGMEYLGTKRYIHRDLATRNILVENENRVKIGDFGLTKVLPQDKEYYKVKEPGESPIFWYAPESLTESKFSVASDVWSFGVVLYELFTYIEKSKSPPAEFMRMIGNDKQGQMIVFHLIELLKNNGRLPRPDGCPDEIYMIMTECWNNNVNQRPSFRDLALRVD
T1 sequence (P23458 875-1153 limits assumed): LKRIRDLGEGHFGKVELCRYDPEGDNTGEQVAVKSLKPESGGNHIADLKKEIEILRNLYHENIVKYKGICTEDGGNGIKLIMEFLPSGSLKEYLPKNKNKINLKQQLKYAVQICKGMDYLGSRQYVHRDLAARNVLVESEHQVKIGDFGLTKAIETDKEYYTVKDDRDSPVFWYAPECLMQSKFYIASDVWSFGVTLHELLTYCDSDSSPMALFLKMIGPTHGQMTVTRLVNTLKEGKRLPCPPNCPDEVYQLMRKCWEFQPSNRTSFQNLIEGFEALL

Structure (SMILES) | pKi [1] | pKi [3] | pEC50 [2]
CN1CCN(C(=O)Cn2cc(Nc3nc4c(N5CC(CC#N)(c6ccc(Cl)c(F)c6)C5)cccn4n3)cn2)CC1 [Example 23, 2-[3-(4-chloro-3-fluoro-phenyl)-1-[2-[[1-[2-(4-methylpiperazin-1-yl)-2-oxo-ethyl]pyrazol-4-yl]amino]-[1,2,4]triazolo[1,5-a]pyridin-8-yl]azetidin-3-yl]acetonitrile] | 9.15 | 8.21 | 7.40
CCc1cnn(C2(CC#N)CN(c3cccn4nc(Nc5cnn(CC(=O)N6CCC(CN7CCN(C)CC7)CC6)c5)nc34)C2)c1 [Example 47] | 9.40 | 9.70 | 7.96
N#CCC1(c2cccc(Cl)c2)CN(c2cccn3nc(Nc4cnn(CC(=O)N5CCC(NCC6(C#N)CC6)CC5)c4)nc23)C1 [Example 99, 1-[[[1-[2-[4-[[8-[3-(3-chlorophenyl)-3-(cyanomethyl)azetidin-1-yl]-[1,2,4]triazolo[1,5-a]pyridin-2-yl]amino]pyrazol-1-yl]acetyl]-4-piperidyl]amino]methyl]cycl opropanecarbonitrile] | 8.70 | 8.40 | 7.15
CC(=O)N1CCN(CC2CCN(C(=O)Cn3cc(Nc4nc5c(N6CC(CC#N)(c7cccc(Cl)c7)C6)cccn5n4)cn3)CC2)CC1 [Example 95, 2-[1-[2-[[1-[2-[4-[(4-acetylpiperazin-1-yl)methyl]-1-piperidyl]-2-oxo-ethyl]pyrazol-4-yl]amino]-[1,2,4]triazolo[1,5-a]pyridin-8-yl]-3-(3-chlorophenyl)azetidin-3-yl]acetonitrile] | 9.40 | 8.89 | 7.39
CC(C)Sc1ccc(C2(CC#N)CN(c3cccn4nc(Nc5cnn(CC(=O)N6CCN(C)CC6)c5)nc34)C2)cc1 [Example 16, 2-[3-(4-isopropylsulfanylphenyl)-1-[2-[[1-[2-(4-methylpiperazin-1-yl)-2-oxo-ethyl]pyrazol-4-yl]amino]-[1,2,4]triazolo[1,5-a]pyridin-8-yl]azetidin-3-yl]acetonitrile] | 9.22 | 8.43 | 7.72
CCc1cnn(C2(CC#N)CN(c3cccn4nc(Nc5ccc(CC(=O)N6CCN(C)CC6)cc5)nc34)C2)c1 [Example 73, 2-[3-(4-ethylpyrazol-1-yl)-1-[2-[4-[2-(4-methylpiperazin-1-yl)-2-oxo-ethyl]anilino]-[1,2,4]triazolo[1,5-a]pyridin-8-yl]azetidin-3-yl]acetonitrile] | 9.15 | 9.52 | 7.74
CCc1cnn(C2(C(C)C#N)CN(c3cccn4nc(Nc5cnn(CC(=O)N6CCN(C)CC6)c5)nc34)C2)c1 (stereo not drawn) [Example 54, 2-[3-(4-ethylpyrazol-1-yl)-1-[2-[[1-[2-(4-methylpiperazin-1-yl)-2-oxo-ethyl]pyrazol-4-yl]amino]-[1,2,4]triazolo[1,5-a]pyridin-8-yl]azetidin-3-yl]propanenitrile] | 9.00 | 8.55 | 6.64
COc1cnn(C2(CC#N)CN(c3cccn4nc(Nc5cn[nH]c5)nc34)C2)c1 [Example 139, 2-[3-(4-methoxypyrazol-1-yl)-1-[2-(1H-pyrazol-4-ylamino)-[1,2,4]triazolo[1,5-a]pyridin-8-yl]azetidin-3-yl]acetonitrile] | 9.40 | 9.05 | 7.41
CN1CCN(C(=O)Cn2cc(Nc3nc4c(N5CC(CC#N)(n6cc(F)cn6)C5)cccn4n3)cn2)CC1 [Example 19, 2-[3-(4-fluoropyrazol-1-yl)-1-[2-[[1-[2-(4-methylpiperazin-1-yl)-2-oxo-ethyl]pyrazol-4-yl]amino]-[1,2,4]triazolo[1,5-a]pyridin-8-yl]azetidin-3-yl]acetonitrile] | 8.36 | 8.40 | 6.59

The remaining compounds from weak to strong by pKi [1], led by results:

pKi [1] | pKi [3] | Structure (SMILES) | pEC50 [2]
9.40 | 8.64 | CN1CCN(C(=O)Cn2cc(Nc3nc4c(N5CC(CC#N)(n6cc(CCO)cn6)C5)cccn4n3)cn2)CC1 [Example 25, 2-[3-[4-(2-hydroxyethyl)pyrazol-1-yl]-1-[2-[[1-[2-(4-methylpiperazin-1-yl)-2-oxo-ethyl]pyrazol-4-yl]amino]-[1,2,4]triazolo[1,5-a]pyridin-8-yl]azetidin-3-yl]acetonitrile] | 6.86
9.52 | 8.92 | CN1CCN(C(=O)Cn2cc(Nc3nc4c(N5CC(CC#N)(c6ccc(C(F)(F)F)cc6)C5)cccn4n3)cn2)CC1 [Example 17] | 7.74
9.52 | 8.82 | CN(CC1(C#N)CC1)C1CCN(C(=O)Cn2cc(Nc3nc4c(N5CC(CC#N)(c6cccc(Cl)c6)C5)cccn4n3)cn2)CC1 [Example 100, 1-[[[1-[2-[4-[[8-[3-(3-chlorophenyl)-3-(cyanomethyl)azetidin-1-yl]-[1,2,4]triazolo[1,5-a]pyridin-2-yl]amino]pyrazol-1-yl]acetyl]-4-piperidyl]-methyl-amino]methyl]cyclopropane carbonitrile] | 7.59
9.52 | 9.70 | CCc1cnn(C2(CC#N)CN(c3cccn4nc(Nc5cnn(CC(=O)N6CCC(NCC(C)(C)C#N)CC6)c5)nc34)C2)c1 [Example 33, 3-[[1-[2-[4-[[8-[3-(cyanomethyl)-3-(4-ethylpyrazol-1-yl)azetidin-1-yl]-[1,2,4]triazolo[1,5-a]pyridin-2-yl]amino]pyrazol-1-yl]acetyl]-4-piperidyl]amino]-2,2-dimethyl-propanenitrile] | 7.74
9.52 | 9.52 | Cc1nn(C2(CC#N)CN(c3cccn4nc(Nc5cnn(CC(=O)N6CCN(C)CC6)c5)nc34)C2)cc1-c1ccccc1 [Example 114, formic acid;2-[3-(3-methyl-4-phenyl-pyrazol-1-yl)-1-[2-[[1-[2-(4-methylpiperazin-1-yl)-2-oxo-ethyl]pyrazol-4-yl]amino]-[1,2,4]triazolo[1,5-a]pyridin-8-yl]azetidin-3-yl]acetonitrile] | 7.80
9.70 | 9.15 | CN1CCN(C(=O)Cn2cc(Nc3nc4c(N5CC(CC#N)(n6cc(C#N)cn6)C5)cccn4n3)cn2)CC1 [Example 87, 1-[3-(cyanomethyl)-1-[2-[[1-[2-(4-methylpiperazin-1-yl)-2-oxo-ethyl]pyrazol-4-yl]amino]-[1,2,4]triazolo[1,5-a]pyridin-8-yl]azetidin-3-yl]pyrazole-4-carbonitrile] | 7.77
9.70 | 9.40 | CN1CCN(C(=O)Cn2cc(Nc3nc4c(N5CC(CC#N)(Cc6ccccc6Cl)C5)cccn4n3)cn2)CC1 [Example 126, 2-[3-[(2-chlorophenyl)methyl]-1-[2-[[1-[2-(4-methylpiperazin-1-yl)-2-oxo-ethyl]pyrazol-4-yl]amino]-[1,2,4]triazolo[1,5-a]pyridin-8-yl]azetidin-3-yl]acetonitrile] | 7.92
9.70 | 9.70 | N#CCC1(n2cc(Br)cn2)CN(c2cccn3nc(Nc4cn[nH]c4)nc23)C1 [Example 128, 2-[3-(4-bromopyrazol-1-yl)-1-[2-(1H-pyrazol-4-ylamino)-[1,2,4]triazolo[1,5-a]pyridin-8-yl]azetidin-3-yl]acetonitrile] | 8.10
